Measurements reported in US20030073731A1, “Compositions and methods of the use thereof achiral analogues of CC-1065 and the duocarmycins” (priority 2000, published 2003).
Where two headings read alike, the source gives them in different places.

Legend:
SW-620 [1] = test system: SW-620
[2] = test system: K562 human chronic myeloid leukemia cells; assay: cells; format: cell-based
Experimental: The cytotoxicity was determined using a MTT tetrazolium dye assay (42). […] The incubation was terminated by centrifugation (5 minutes, 300 g) and the cells were washed once with drug-free medium. Following the appropriate drug treatment, the cells were transferred to 96-well microtitre plates, 10^4 cells per well, 8 wells per sample. Plates were then kept in the dark at 37° C. in a humidified atmosphere containing 5% CO2. […] Following incubation of the plates for 4 days (to allow control cells to increase in number by 10 fold) 20 μL of a 5 mg/mL solution of MTT in phosphate buffered saline was added to each well and the plates further incubated for 5 hours. The plates were then centrifuged for 5 minutes at 300 g and the bulk of the medium pipetted from the cell pellet leaving 10-20 μL per well. 200 μL DMSO was added to each well and the samples agitated to ensure complete mixing. The optical density was the read at a wavelength of 550 nm on a Titertek Multiscan ELISA plate reader, and the dose-response curve was constructed.

L1210 leukemia cells = assay: cells; format: cell-based, murine; conditions: Mus musculus; L1210, 72 hr incubation
Experimental: (§1) The P815 and L1210 cell lines were obtained from American Type Tissue Culture Collection (ATCC). The cell lines were grown in Delbecco's Modified Eagle Medium (DMEM, Atlanta Biologicals) supplemented with 10% fetal bovine serum, Hepes Buffer (2 mM, Mediatech Cellgro, 25-060-Cl), L-Glutamine (2 mM, Mediatech Cellgro), and penicillin/streptomycin (50,000 units penicillin, […] streptomycin, Atlanta Biologicals). Cells were maintained at 37° C. in a 5% humidified CO2 atmosphere. […] This cell suspension (100 μL) was added to 96 well flat-bottom cell culture plates. At this concentration, 80,000 cells were seeded in each well. Drug solutions (dissolved in DMSO and diluted in DMEM) were added to each well (5 μL/well) resulting in final concentrations ranging from […] to 1×10^−12 M. Quadruplicate wells were prepared for each drug concentration. The plates were incubated for 72 hr at 37° C. in a 5% CO2 atmosphere. MTT (3-(4,5-dimethylthiazol-2-yl)-2,5-diphenyl tetrazolium bromide) was dissolved in PBS (5 mg/ml). After the indicated cell incubation period, 10 μL of this stock MTT solution was added to each well and the plates were further incubated for 4 h at 37° C. in a 5% CO2 atmosphere. […] The contents of the well were mixed thoroughly by pipetting the cell suspension up and down and the plates were allowed to sit at room temperature for 15 min in order to allow for full development of the purple color. The plates were read on a Dynatech Plate Reader, utilizing Dynex Revelation 3.2 software, with a test wavelenth of 570 nm and a reference wavelength of […].

P815 mastocytoma cells = assay: cells; format: cell-based, murine; conditions: Mus musculus; P815, 72 hr incubation
Experimental: as §1

HL-60 (TB) = assay: NCI in-vitro cytotoxicity screen, Leukemia panel; format: cell-based, human
Experimental: (§2) The compounds of this invention were also tested against the panel of 60 human cancer cell lines at the National Cancer Institute, Bethesda, Md. […] The cytotoxicity studies were conducted using a 48 hour exposure, and measuring the optical density of sulforhodamine B-derived color.

NCI-H460 = assay: NCI in-vitro cytotoxicity screen, Non-Small Cell Lung Cancer panel; format: cell-based; conditions: Homo sapiens
Experimental: as §2

CCRF-CEM = assay: cells; conditions: Homo sapiens
K-562 = assay: cells; conditions: Homo sapiens
RPMI-8226 = assay: cells; conditions: Homo sapiens
A549/ATCC = assay: cells; conditions: Homo sapiens, A549, read-out: LC50
HOP-62 = assay: cells; conditions: Homo sapiens
NCI-H226 = assay: cells; conditions: Homo sapiens
NCI-H23 = assay: cells; conditions: Homo sapiens
HCC-2998 = assay: cells; conditions: Homo sapiens
SW-620 [3] = assay: cells; conditions: Homo sapiens
OVCAR-8 = assay: cells; conditions: Homo sapiens
SN12C = assay: cells; conditions: Homo sapiens

Experimental for human H522 lung cancer: For these assays, human tumor cells are cultivated in polyvinylidene fluoride (PVDF) hollow fibers, and a sample of each cell line is implanted into each of two physiologic compartments (intraperitoneal and subcutaneous) in mice. […] Three mice are treated with potential antitumor compounds at each of 2 test doses by the intraperitoneal route using a QD×4 treatment schedule. Vehicle controls consist of 6 mice receiving the compound diluent only. The fiber cultures are collected on the day following the last day of treatment. To assess anticancer effects, viable cell mass is determined for each of the cell lines using a formazan dye (MTT) conversion assay. From this, the %T/C can be calculated using the average optical density of the compound treated samples divided by the average optical density of the vehicle controls. In addition, the net increase in cell mass can be determined for each sample as a sample of fiber cultures are assessed for viable cell mass on the day of implantation into mice. Thus, the cytostatic and cytocidal capacities of the test compound can be assessed.
The data are reported as %T/C for each of the 2 compound doses against each of the cell lines with separate values calculated for the intraperitoneal and subcutaneous samples.
Compounds are selected for further in vivo testing in standard subcutaneous xenograft models on the basis of several hollow fiber assay criteria. […] The intraperitoneal and subcutaneous samples are scored separately so that criteria (1) and (2) can be evaluated. Compounds with a combined IP+SC score≧20, a SC score×8 or a net cell kill of one or more cell lines are referred for xenograft testing. These criteria were statistically validated by comparing the activity outcomes of ≧80 randomly selected compounds in the hollow fiber assay and in the xenograft testing.

4-(2-Chloroethyl)-3-[5-(5-benzofuran-2-carboxamido)indole-2-carboxamido]phenol [Compound 1]
GI50 (MOLT-4): 1140 nM
GI50 (SW-620 [1]): 2010 nM
TGI (SW-620 [1]): 8.19E-06 Molar
GI50 (SNB-75): 18600 nM
TGI (SNB-75): 3.32E-05 Molar
GI50 (LOX IMVI): 2430 nM
TGI (LOX IMVI): 6.93E-06 Molar
GI50 (UACC-257): 1880 nM
TGI (UACC-257): 3.40E-06 Molar
GI50 (UACC-62): 1970 nM
TGI (UACC-62): 3.49E-06 Molar
GI50 (TK-10): 2450 nM
TGI (TK-10): 5.85E-06 Molar
GI50 (MDA-MB-435): 1890 nM
TGI (MDA-MB-435): 3.75E-06 Molar
IP+SC score (human H522 lung cancer): 18
cell kill (human H522 lung cancer): significant cells kill was observed
IP score (human H522 lung cancer; intraperitoneal fibers): 8
SC score (human H522 lung cancer; subcutaneous fibers): 10

COC(=O)c1[nH]c2c(O)cc(NC(=O)c3cc4cc(OC)c(OC)c(OC)c4[nH]3)c(CCCl)c2c1C(=O)OC [Compound 22, Dimethyl 4-(2-chloroethyl)-7-hydroxy-5-(5,6,7-trimethoxyindole-2-carboxamido)indole-2,3-dicarboxylate]
IC50 ([2]; 1 hour exposure): 310 ± 220 nM
IC50 ([2]; 72 h, continuous exposure (3 days)): 250 ± 96 nM
IC50 (L1210 leukemia cells): 4200 nM
IC50 (P815 mastocytoma cells): 5400 nM
Percent Growth (HL-60 (TB); HL-60 (TB), Log10 Concentration −4.3): 3%
Percent Growth (HL-60 (TB); HL-60 (TB), Log10 Concentration −5.3): 9%
CC50 (HL-60 (TB); Homo sapiens, HL-60, read-out: LC50): > 50000 nM
GI50 (HL-60 (TB); Homo sapiens, HL-60 (TB)): 60.4 nM
GI50 (NCI-H460): 114 nM
GI50 (CCRF-CEM): 31.8 nM
CC50 (CCRF-CEM; read-out: LC50): > 50000 nM
GI50 (K-562; K562): 315 nM
CC50 (K-562; K562, read-out: LC50): > 50000 nM
GI50 (RPMI-8226; RPMI-8226): 190 nM
CC50 (RPMI-8226; RPMI-8226, read-out: LC50): > 50000 nM
CC50 (A549/ATCC): < 50000 nM
GI50 (HOP-62; HOP-62): 91.4 nM
CC50 (HOP-62; HOP-62, read-out: LC50): 8510 nM
GI50 (NCI-H226; NCI-H226): 74.8 nM
CC50 (NCI-H226; NCI-H226, read-out: LC50): 2550 nM
GI50 (NCI-H23; NCI-H23): 67.5 nM
CC50 (NCI-H23; NCI-H23, read-out: LC50): > 50000 nM
GI50 (HCC-2998; HCC 2998): 102 nM
CC50 (HCC-2998; HCC 2998, read-out: LC50): 10800 nM
GI50 (SW-620 [3]; SW-620): 109 nM
CC50 (SW-620 [3]; SW-620, read-out: LC50): > 50000 nM
GI50 (OVCAR-8; OVCAR-8): 70.9 nM
CC50 (OVCAR-8; OVCAR-8, read-out: LC50): 1760 nM
GI50 (SN12C): 179 nM
CC50 (SN12C; read-out: LC50): > 50000 nM
